Reference: patent US20240253033A1, “MICROFLUIDIC DETECTION SYSTEM WITH ADJUSTABLE FLOW CONTROL” (priority 2022, published 2024)
In brackets after ≈: the same amount, converted by molar mass.

Assays:
MRSA [1] = experiment: QolorAST minimum inhibitory concentration (MIC) test; format: cell-based, Staphylococcus aureus
Protocol: (§1) Ampicillin-resistant E. coli strain mm294 was cultured overnight at 37° C. in Luria broth (LB) media supplemented with 100 μg/mL Ampicillin. […] Next, the bacterial concentration was determined by optical density technique using a Spectronic 21D spectrophotometer. Subsequently, aliquots of different concentrations were prepared for the antibiotic susceptibility testing experiments in LB media. Biotyper spectra (MALDI Bruker).
(§2) 5×10^5 CFU ml^−1 Oxacillin-resistant S. aureus aliquots were prepared using resazurin/oxacillin solution using different concentrations of oxacillin antibiotic (16 μg/mL, 32 μg/mL, and 64 μg/mL). 5×10^5 CFU ml^−1 Cipro.
(§3) A minimum inhibitory concentration (MIC) was performed to study the QolorAST broad applicability in detecting bacterial resistance profiles and ensuring timely and efficient antimicrobial theraby. […] The antibiotics cover major bacterial inhibition mechanisms as inhibition of protein synthesis, cell wall synthesis, and/or DNA synthesis.
(§4) QolorAST exploited two methodologies: Manual MIC (MA-MIC) and support vector machine MIC (SVM-MIC). […] The SVM-MIC was carried out with a rbf kernel that was optimized and trained to predict the color change of the preclinical images using our library of bacteria images collected under different conditions including images where color is changed, color transitioning, and no color change. The SVM successfully classified the condition's bacteria-antibiotic in the concentration range studied.

S. agalactiae [2] = experiment: as above; format: cell-based, Streptococcus agalactiae
Protocol: (§5) Acinetobacter baumannii, Enterococcus faecalis, Enterococcus faecium, Streptococcus agalactiae, Enterobacter cloacae, Klebsiella pneumoniae, Streptococcus pneumoniae, E coli MG1655, and E coli Trimethoprim resistant were streaked on LB miller agar overnight at 37° C. and resuspended in water aliquot. Next, the bacterial concentration was determined using optical density technique. Subsequently, aliquots of different concentrations were prepared for the antibiotic susceptibility testing experiments in CamHB growth media.
as §2, §3, §4

MRSA [3] = experiment: Conventional broth microdilution (BMD) MIC; format: cell-based, Staphylococcus aureus
Protocol: (§6) For clinical MIC, bacteria were streaked on LB agar overnight and resuspended in a water aliquot. The aliquot was measured, and the bacteria concentration was adjusted to of 10^6 CFU ml^−1 in LB media. A 96 well plate with an antibiotic gradient from 128 μg/ml to 0.125 μg/ml in a 2-fold concentration dilution step was prepared with a positive control with no antibiotics. Next, the bacteria were introduced to each well of the 96 well plate for a final bacteria concentration of 5×10^5 CFU ml^−1. The well plates were cultured overnight the minimum inhibitory concentration was determined as the antibiotic concentration that didn't show any signs of bacterial growth.

S. agalactiae [4] = experiment: Conventional broth microdilution (BMD) MIC; format: cell-based, Streptococcus agalactiae
Protocol: as §6

MRSA [5] = experiment: Phenotypic QolorAST rapid AST (resazurin reduction); format: cell-based, Staphylococcus aureus; details: 10^5 cfu/mL MRSA, antibiotic concentrations, 0-60 min
Protocol: (§7) Resistant E. coli, Oxacillin-resistant S. aureus, and Cipro. Resistant PA respectively was used. The aliquots were incubated at 37° C. different periods starting from 0 minutes incubation till 60 minutes with a time step of 5 minutes.
(§8) Resistant PA respectively was used. The aliquots were incubated at 37° C. different periods starting from 0 minutes incubation until 60 minutes with a time step of 5 minutes.
(§9) MRSA and PA respectively.

serum proteins = details: human serum; cited from earlier work
A. baumannii [6] = experiment: QolorAST minimum inhibitory concentration (MIC) test; format: cell-based, Acinetobacter baumannii
Protocol: as §5, §2, §3, §4

E. cloacae [7] = experiment: as above; format: cell-based, Enterobacter cloacae
Protocol: as §5, §2, §3, §4

S. pneumonia [8] = experiment: as above; format: cell-based, Streptococcus pneumoniae
Protocol: as §5, §2, §3, §4

K. pneumonia [9] = experiment: as above; format: cell-based, Klebsiella pneumoniae
Protocol: as §5, §2, §3, §4

A. baumannii [10] = experiment: Conventional broth microdilution (BMD) MIC; format: cell-based, Acinetobacter baumannii
Protocol: as §6

E. cloacae [11] = experiment: Conventional broth microdilution (BMD) MIC; format: cell-based, Enterobacter cloacae
Protocol: as §6

S. pneumonia [12] = experiment: Conventional broth microdilution (BMD) MIC; format: cell-based, Streptococcus pneumoniae
Protocol: as §6

K. pneumonia [13] = experiment: Conventional broth microdilution (BMD) MIC; format: cell-based, Klebsiella pneumoniae
Protocol: as §6

E coli = experiment: Phenotypic QolorAST rapid AST (resazurin reduction); format: cell-based, Escherichia coli; details: 10^5 cfu/mL E coli, antibiotic concentrations, 0-60 min
Protocol: as §7, §8, §9

E coli mm 294 = experiment: QolorAST MIC test for E coli strains spiked in urine; format: cell-based, Escherichia coli; details: E coli mm 294 spiked in urine
Protocol: To obtain spiked human samples, first human urine was centrifuged at 5000 rcf for 5 minutes to remove large particles. It was subsequently spiked with 5×10^5 CFU ml^−1 and mixed with a solution of Resazurin to a final concentration of 0.02%. No antibiotics were added for the control aliquots, 32 μg/mL Ampicillin was added for resistant aliquots and 16 μg/mL Kanamycin was added for susceptible aliquots. The aliquots were incubated at 37° C. different periods starting from 0 minutes incubation till 60 minutes with a time step of 5 minutes.
According to the Infectious Diseases Society of America (IDSA), 105 CFU ml^−1 and 102 CFU ml^−1 were spiked in-vivo in urine, serum, and nasal swab of donors to simulate urinary tract infection, wound infection, and pneumonia by MRSA, respectively. Human urine was spiked with different concentrations of E. coli (FIG. 32D). As a control the healthy human biofluids were screened as received.

PA [14] = experiment: QolorAST minimum inhibitory concentration (MIC) test; format: cell-based, Pseudomonas aeruginosa
Protocol: as §1, §2, §3, §4

PA [15] = experiment: Conventional broth microdilution (BMD) MIC; format: cell-based, Pseudomonas aeruginosa
Protocol: as §6

Pseudomonas aeruginosa = experiment: Phenotypic QolorAST rapid AST (resazurin reduction); format: cell-based; details: 10^5 cfu/mL PA, antibiotic concentrations, 0-60 min
Protocol: as §7, §8, §9

Compound: Cc1onc(-c2ccccc2)c1C(=O)N[C@@H]1C(=O)N2[C@@H]1SC(C)(C)[C@@H]2C(=O)O [Oxacillin]
- MA-MIC/SVM-MIC/MIC Category (MRSA [1]): R/R/R
- QolorAST MIC Manual (MA-MIC) (MRSA [1]): 64 µg/mL
- QolorAST MIC SVM (SVM-MIC) (MRSA [1]): 64 µg/mL
- resistance or susceptibility (MRSA [1]): resistance
- MA-MIC/SVM-MIC/MIC Category (S. agalactiae [2]): S/S/S*
- QolorAST MIC Manual (MA-MIC) (S. agalactiae [2]): 0.125 µg/mL
- QolorAST MIC SVM (SVM-MIC) (S. agalactiae [2]): 0.125 µg/mL
- resistance or susceptibility (S. agalactiae [2]): susceptible
- Broth Microdilution MIC (MIC) (MRSA [3]): 64
- Broth Microdilution MIC (MIC) (S. agalactiae [4]): 0.125
- QolorAST colour readout over incubation (MRSA [5]): consistent color change from blue to green
- drug bounded to serum proteins (serum proteins): 93%

Compound: CC1(C)S[C@@H]2[C@H](NC(=O)[C@H](N)c3ccccc3)C(=O)N2[C@H]1C(=O)O [Ampicillin]
- MA-MIC/SVM-MIC/MIC Category (A. baumannii [6]): R/R/R*
- QolorAST MIC Manual (MA-MIC) (A. baumannii [6]): > 128 µg/mL
- QolorAST MIC SVM (SVM-MIC) (A. baumannii [6]): > 128 µg/mL
- MIC (A. baumannii [6]; both manually and through SVM): > 128 µg/mL
- MA-MIC/SVM-MIC/MIC Category (E. cloacae [7]): R/R/R
- QolorAST MIC Manual (MA-MIC) (E. cloacae [7]): > 128 µg/mL
- QolorAST MIC SVM (SVM-MIC) (E. cloacae [7]): > 128 µg/mL
- MA-MIC/SVM-MIC/MIC Category (S. pneumonia [8]): R/R/R*
- QolorAST MIC Manual (MA-MIC) (S. pneumonia [8]): > 128 µg/mL
- QolorAST MIC SVM (SVM-MIC) (S. pneumonia [8]): > 128 µg/mL
- MA-MIC/SVM-MIC/MIC Category (K. pneumonia [9]): R/R/R
- QolorAST MIC Manual (MA-MIC) (K. pneumonia [9]): > 128 µg/mL
- QolorAST MIC SVM (SVM-MIC) (K. pneumonia [9]): 128 µg/mL
- relative susceptibility from MIC values (K. pneumonia [9]): enhanced susceptibility to ampicillin over colistin
- Broth Microdilution MIC (MIC) (A. baumannii [10]): >128
- Broth Microdilution MIC (MIC) (E. cloacae [11]): >128
- Broth Microdilution MIC (MIC) (S. pneumonia [12]): >128
- Broth Microdilution MIC (MIC) (K. pneumonia [13]): >128
- QolorAST colour readout over incubation (E coli): consistent color change from blue to green

Compound: NC[C@H]1O[C@H](O[C@H]2[C@H](O)[C@@H](O[C@H]3O[C@H](CO)[C@@H](O)[C@H](N)[C@H]3O)[C@H](N)C[C@@H]2N)[C@H](O)[C@@H](O)[C@@H]1O [Kanamycin]
- MIC (E coli mm 294): 8 µg/mL (≈ 16.5 µM)

Compound: Gentamicin
- MA-MIC/SVM-MIC/MIC Category (PA [14]): S/S/S*
- MIC outcomes (PA [14]): 0.5 µg/mL
- QolorAST MIC Manual (MA-MIC) (PA [14]): 0.5 µg/mL
- QolorAST MIC SVM (SVM-MIC) (PA [14]): 0.5 µg/mL
- classification by clinical breakpoints (PA [14]): susceptible
- Broth Microdilution MIC (MIC) (PA [15]): 0.5
- QolorAST colour readout over incubation (Pseudomonas aeruginosa): consistent blue color
